Measurements published in patent US20230027198A1 (The Rockefeller University, priority 2019, published 2023).

Columns and labels:
tumor = settings: preclinical studies in mice; cited from earlier work
acute myeloid leukemia = settings: cited from earlier work
[1] = system: BET family of bromodomain proteins; settings: cited from earlier work
[2] = system: myeloma tumors; leukemic engraftment of patient-derived primary samples; settings: mice, cited from earlier work
[3] = target: T1, ENL YEATS domain (6×HIS ENL YEATS Domain) binding to H3K9cr peptide (Homo sapiens, UniProt Q03111); assay: TR-FRET ENL Screening Assay, FRET Assay Protocol 1; settings: H3K9cr peptide (aa1-20)
T1 construct: aa1-150; EpiCypher, 15-0069; purchased EpiCypher 15-0069
T1 sequence (Q03111 1-150): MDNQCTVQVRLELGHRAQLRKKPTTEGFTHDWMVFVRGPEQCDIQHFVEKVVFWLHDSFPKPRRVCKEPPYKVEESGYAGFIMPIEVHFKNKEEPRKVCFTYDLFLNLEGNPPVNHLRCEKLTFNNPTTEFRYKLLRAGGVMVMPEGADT
Experimental: Compounds of the invention were dissolved in DMSO at a concentration of 3 mM with subsequent dilutions in assay buffer (50 mM HEPES PH7.0, 150 mM NaCl, 0.05% BSA, 0.2% Pluronic F-127) such that the assay contained 1% DMSO. […] Low control (LC) wells received 5 uL of assay buffer instead of ENL protein. […] Compound concentration response curves were performed in duplicate over the concentration range of 0.15 nM-30 uM. The response at each compound concentration minus the LC value was converted to percent inhibition of the vehicle control group response (HC-LC). The relationship between the % inhibition and the compound concentration was analyzed using a four parameter logistic equation to estimate lower and upper asymptotes, the compound concentration producing 50% inhibition (IC50 value) and the slope at the mid-point location.

MV4-11 cells = assay: Cell viability assay (CellTiter-Glo), 12 days; assay type: cell-based; settings: Homo sapiens, readouts on days 4, 8 and 12, day not given
Experimental: Cell-based assays were used to assess the ability of test compounds to reduce cell viability in both MV4:11 (MLL-AF4 MLL) and K562 cells, which were cultured in Iscove's Modified Dulbecco's medium (Gibco, 12440061) containing […]. The assays were conducted over 12 days and the cells being split on days 4 and 8. Compound concentration response curves were performed in duplicate over the concentration range of 0.15 nM-30 uM. On day 0, the compounds or vehicle were plated in a 300 nL directly into 96 well cell culture plates (Corning, 3599) with 5000 cells/well in a volume of 100 uL. Blank wells received cell culture medium. Plates were incubated for 4 days at 37° C. with 5% CO2. On days 4 and day 8 the cells were split and incubated for a further 4 days whilst an aliquot of cells were taken for the CTG readout. For the cell splitting, 270 nL of compounds or DMSO was added to a new 96 well cell culture plate to which 90 uL of medium plus 10 uL of cells from the original assay plate (after mixing) or 100 uL of medium (Blank wells) was added. This was repeated on day 8.
Cell viability was assessed using the CellTiter-Glo® homogeneous luminescent assay kit (Promega, G9243), according to the manufacturer's instructions. This quantifies ATP, which indicates the presence of metabolically active cells. On days 4, 8 and 12, 20 ul of the remaining cell suspension was aspirated into 384-well plate (Corning 3570) to which an equal volume CellTiter-Glo reagent was. Plates were incubated for 10 minute incubation at RT prior to recording the luminescence signal using EnVision plate reader (PE, 2104). The resulting data were analyzed as follows:
Inhibition (%)=100%×(Lumvehicie−Lumsample)/(Lumvehicle−Lumblank)
where vehicle are cells treated with 0.3% DMSO, Blank is culture medium. IC50 determinations were calculated by fitting the curve using XLfit (v5.3.1.3): Y=Bottom+(Top−Bottom)/(1+10^((Log IC50−X)*HillSlope)).

| SMILES | IC50 [3] | IC50 (MV4-11 cells) | also measured |
| --- | --- | --- | --- |
| CCn1nc(C2CC2)cc1Nc1nc(C(=O)NCCCOCCOCCOCCCNc2cccc3c2C(=O)N(C2CCC(=O)NC2=O)C3=O)nc2[nH]c3cc(-c4c(C)noc4C)c(OC)cc3c12 (stereo not shown) [BET-d246] |  |  | anti-tumor activity (tumor): strong anti-tumor activity |
| CCS(=O)(=O)Nc1ccc(Oc2ccc(F)cc2F)c(-c2cn(C)c(=O)c3[nH]ccc23)c1 [Mivebresib] |  |  | antileukemic effects (acute myeloid leukemia; patients with relapsed and refractory AML): showed antileukemic effects; tolerability (acute myeloid leukemia; phase 1 study, patients with solid tumors and AML): well tolerated |
| Cc1sc2c(c1C)C(c1ccc(Cl)cc1)=N[C@@H](CC(=O)OC(C)(C)C)c1nnc(C)n1-2 [JQ1] |  |  | inhibition of BET bromodomain proteins [1]: potent inhibitor |
| COc1cc2c(cc1-c1c(C)noc1C)ncc1[nH]c(=O)n([C@H](C)c3ccccn3)c12 [I-BET 151] |  |  | leukemic engraftment and disease burden ([2]; in vivo, patient-derived primary samples): impairs the leukemic engraftment of patient-derived primary samples and lowers the disease burden; effect on myeloma tumors [2]: reduced myeloma tumors |
| C[C@H]1CCCN1Cc1cc2cnc(NC(=O)c3ccc4c(N(C)C)nn(C)c4c3)cc2[nH]1 [Example 86] | 209 nM | 0.482 µM |  |
| C[C@H]1CCCN1Cc1cc2cnc(NC(=O)c3ccc4c(NCC(F)F)nn(C)c4c3)cc2[nH]1 [Example 95, 3-[(2,2-difluoroethyl)amino]-1-methyl-N-(2-[[(2S)-2-methylpyrrolidin-1-yl]methyl]-1H-pyrrolo[3,2-c]pyridin-6-yl)indazole-6-carboxamide] | 160 nM | 0.704 µM |  |
| C[C@H]1CCCN1Cc1cc2cnc(NC(=O)c3ccc4c(c3)c(N)nn4C)cc2[nH]1 [Example 92] | 210 nM | 0.134 µM |  |

More lines, main results first:

| IC50 [3] | IC50 (MV4-11 cells) | SMILES | also measured |
| --- | --- | --- | --- |
| 208 nM | 0.076 µM | C[C@H]1CCCN1Cc1cc2cnc(NC(=O)c3ccc4cc(=O)[nH]cc4c3)cc2[nH]1 [Example 23, N-(2-[[(2S)-2-methylpyrrolidin-1-yl]methyl]-1H-pyrrolo[3,2-c]pyridin-6-yl)-3-oxo-2H-isoquinoline-7-carboxamide] |  |
| 161 nM | 0.109 µM | C[C@H]1CCCN1Cc1cc2cnc(NC(=O)c3ccc(-c4cn[nH]c4)cc3)cc2[nH]1 [Example 42, N-(2-[[(2S)-2-methylpyrrolidin-1-yl]methyl]-1H-pyrrolo[3,2-c]pyridin-6-yl)-4-(1H-pyrazol-4-yl)benzamide] |  |
| 33 nM | 0.454 µM | C[C@H]1CCCN1Cc1cc2cnc(NC(=O)c3ccc4c(N)nccc4c3)cc2[nH]1 [Example 82] |  |
| 141 nM | 0.623 µM | COc1cc2ccc(C(=O)Nc3cc4[nH]c(CN5CCC[C@@H]5C)cc4cn3)cc2cn1 [Example 88] |  |
| 144 nM | 0.128 µM | Cc1n[nH]c2ccc(C(=O)Nc3cc4[nH]c(CN5CCC[C@@H]5C)cc4cn3)cc12 [Example 47] |  |
